Assay results taken from ChEMBL document CHEMBL1909046, “DrugMatrix in vitro pharmacology data”.

Columns and labels:
[1] = biological target: T1, Adenosine receptor A1 (Homo sapiens, UniProt P30542); format: cell membranes, CHO, Membrane; settings: cho;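 further: radioligand binding assay at the adenosine A1 receptor, with DPCPX serving as the labelled ligand; in other assays of this panel Not Active means under 50% inhibition at 10 µM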
T1 sequence (P30542 whole entry): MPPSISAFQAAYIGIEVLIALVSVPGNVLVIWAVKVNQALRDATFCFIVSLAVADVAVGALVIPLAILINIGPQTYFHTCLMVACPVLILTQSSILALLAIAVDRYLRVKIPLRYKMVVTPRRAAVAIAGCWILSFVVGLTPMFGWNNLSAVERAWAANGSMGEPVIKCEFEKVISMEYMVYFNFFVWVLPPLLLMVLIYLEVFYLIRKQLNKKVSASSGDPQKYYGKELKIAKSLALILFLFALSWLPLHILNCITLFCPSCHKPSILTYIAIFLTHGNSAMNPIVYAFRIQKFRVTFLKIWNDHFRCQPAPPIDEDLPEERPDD

[2] = biological target: Melanocortin receptor 5 (Homo sapiens, UniProt P33032); format: cell membranes, HEK293, Membrane; settings: hek293; further: in other assays of this panel Not Active means under 50% inhibition at 10 µM
[3] = biological target: T2, Muscarinic acetylcholine receptor M4 (Homo sapiens, UniProt P08173); format: cell membranes, CHO-K1, Membrane; settings: cho-k1; further: in other assays of this panel Not Active means under 50% inhibition at 10 µM
T2 sequence (P08173 whole entry): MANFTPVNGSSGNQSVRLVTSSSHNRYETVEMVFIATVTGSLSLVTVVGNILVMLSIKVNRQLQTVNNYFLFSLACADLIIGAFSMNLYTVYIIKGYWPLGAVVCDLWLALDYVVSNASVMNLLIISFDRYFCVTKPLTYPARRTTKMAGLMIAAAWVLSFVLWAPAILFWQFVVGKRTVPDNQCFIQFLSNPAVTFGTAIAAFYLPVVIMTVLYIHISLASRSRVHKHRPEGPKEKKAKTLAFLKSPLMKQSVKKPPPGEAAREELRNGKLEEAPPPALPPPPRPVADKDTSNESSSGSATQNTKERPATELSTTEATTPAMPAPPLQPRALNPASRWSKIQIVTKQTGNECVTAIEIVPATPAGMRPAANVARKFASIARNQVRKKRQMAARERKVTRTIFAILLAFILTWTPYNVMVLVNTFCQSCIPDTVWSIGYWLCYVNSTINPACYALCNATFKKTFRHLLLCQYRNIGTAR

[4] = biological target: Sodium-dependent dopamine transporter (Homo sapiens, UniProt Q01959); experiment: DRUGMATRIX: Dopamine Transporter radioligand binding (ligand: [125I] RTI-55); format: cell membranes, CHO-K1, Membrane; settings: Not Active = under 50% inhibition at 10 µM
[5] = biological target: Histamine H2 receptor (Homo sapiens, UniProt P25021); format: cell membranes, CHO-K1, Membrane; settings: cho-k1; further: in other assays of this panel Not Active means under 50% inhibition at 10 µM
[6] = DRUGMATRIX: Calcium Channel Type L, Dihydropyridine radioligand binding (ligand: [3H] Nitrendipine); format: cell membranes, Rattus norvegicus, Wistar, Cerebral cortex, Membrane; settings: Not Active = under 50% inhibition at 10 µM

Sequence of Melanocortin receptor 5 (P33032 whole entry): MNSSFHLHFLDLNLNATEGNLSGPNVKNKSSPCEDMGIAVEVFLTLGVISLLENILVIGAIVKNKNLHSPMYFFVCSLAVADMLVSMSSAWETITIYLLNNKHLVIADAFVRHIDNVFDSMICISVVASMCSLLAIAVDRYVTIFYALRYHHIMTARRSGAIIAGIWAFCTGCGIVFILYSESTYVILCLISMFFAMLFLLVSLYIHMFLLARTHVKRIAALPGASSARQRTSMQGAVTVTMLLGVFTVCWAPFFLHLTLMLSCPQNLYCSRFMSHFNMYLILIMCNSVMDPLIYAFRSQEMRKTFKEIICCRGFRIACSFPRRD
Sequence of Histamine H2 receptor (P25021 whole entry): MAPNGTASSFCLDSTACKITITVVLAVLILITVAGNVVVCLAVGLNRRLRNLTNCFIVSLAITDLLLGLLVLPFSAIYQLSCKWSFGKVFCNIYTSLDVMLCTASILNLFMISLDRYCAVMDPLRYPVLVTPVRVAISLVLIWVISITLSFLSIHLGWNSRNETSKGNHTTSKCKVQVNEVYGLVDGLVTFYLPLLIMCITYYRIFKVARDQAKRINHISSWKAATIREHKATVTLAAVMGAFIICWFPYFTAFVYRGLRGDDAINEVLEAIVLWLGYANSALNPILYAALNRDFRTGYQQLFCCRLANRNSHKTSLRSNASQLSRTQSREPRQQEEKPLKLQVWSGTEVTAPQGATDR
Sequence of Sodium-dependent dopamine transporter (Q01959 whole entry): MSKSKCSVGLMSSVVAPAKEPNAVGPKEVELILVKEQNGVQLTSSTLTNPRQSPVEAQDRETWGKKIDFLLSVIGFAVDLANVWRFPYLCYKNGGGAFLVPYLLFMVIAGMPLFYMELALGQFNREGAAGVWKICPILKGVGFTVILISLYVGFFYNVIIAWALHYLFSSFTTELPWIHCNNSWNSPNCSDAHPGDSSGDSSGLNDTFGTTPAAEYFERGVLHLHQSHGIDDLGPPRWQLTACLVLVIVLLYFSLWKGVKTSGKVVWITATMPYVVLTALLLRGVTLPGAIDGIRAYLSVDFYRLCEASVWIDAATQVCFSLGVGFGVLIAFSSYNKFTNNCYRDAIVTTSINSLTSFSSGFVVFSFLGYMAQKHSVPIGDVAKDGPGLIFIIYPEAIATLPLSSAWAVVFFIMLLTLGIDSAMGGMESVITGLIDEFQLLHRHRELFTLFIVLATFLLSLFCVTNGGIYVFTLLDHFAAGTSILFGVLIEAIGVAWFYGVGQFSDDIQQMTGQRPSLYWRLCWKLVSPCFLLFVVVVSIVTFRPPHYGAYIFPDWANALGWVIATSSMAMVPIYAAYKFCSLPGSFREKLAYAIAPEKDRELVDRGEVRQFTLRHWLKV

Compound	IC50 [1]	IC50 [2]	IC50 [3]	IC50 ([4]; read-out: IC50)	Ki ([4]; read-out: Ki)	IC50 [5]	IC50 [6]	Ki [6]	IC50 ([4]; cho-k1)	IC50 ([6]; read-out: IC50)	Ki ([6]; read-out: Ki)
C#C[C@]1(O)CC[C@H]2[C@@H]3CCc4cc(O)ccc4[C@H]3CC[C@@]21C [ETHINYL ESTRADIOL]	Not Active	Not Active	Not Active	559 nM	444 nM	Not Active	Not Active	Not Active			
OCCO [ETHYLENE GLYCOL]	Not Active	Not Active	Not Active			Not Active	Not Active	Not Active	Not Active		
CC(=O)OCC(CCn1cnc2cnc(N)nc21)COC(C)=O [FAMCICLOVIR]	Not Active	Not Active	Not Active			Not Active	Not Active	Not Active	Not Active		
O=C(O)Cc1ccc(-c2ccccc2)cc1 [FELBINAC]	Not Active	Not Active	Not Active			Not Active	Not Active	Not Active	Not Active		
CCOC(=O)C1=C(C)NC(C)=C(C(=O)OC)C1c1cccc(Cl)c1Cl (stereo unspecified) [FELODIPINE]	Not Active	Not Active	Not Active			Not Active			Not Active	0.082 nM	0.053 nM
CC(C(=O)O)c1ccc(-c2ccccc2)c(F)c1 (stereo unspecified) [FLURBIPROFEN]	Not Active	Not Active	Not Active			Not Active	Not Active	Not Active	Not Active		
Cc1cn[nH]c1 [FOMEPIZOLE]	Not Active	Not Active	Not Active			Not Active	Not Active	Not Active	Not Active		
NC[C@@H]1O[C@H](O[C@H]2[C@@H](O)[C@H](O[C@@H]3[C@@H](O)[C@H](N)C[C@H](N)[C@H]3O[C@H]3O[C@H](CN)[C@@H](O)[C@H](O)[C@H]3N)O[C@@H]2CO)[C@H](N)[C@@H](O)[C@@H]1O [FRAMYCETIN]	Not Active	Not Active	Not Active			Not Active	Not Active	Not Active	Not Active		
C[C@H]([C@](O)(Cn1cncn1)c1ccc(F)cc1F)S(C)(=O)=O [GENACONAZOLE]	Not Active	Not Active	Not Active			Not Active	Not Active	Not Active	Not Active		
Cc1cnc(C(=O)NCCc2ccc(S(=O)(=O)NC(=O)NC3CCCCC3)cc2)cn1 [GLIPIZIDE]	Not Active	Not Active	Not Active			Not Active	Not Active	Not Active	Not Active		
Cc1c(F)c(N2CCNC(C)C2)cc2c1c(=O)c(C(=O)O)cn2C1CC1 (stereo unspecified) [GREPAFLOXACIN]	Not Active	Not Active	Not Active			Not Active	Not Active	Not Active	Not Active		
COc1ccccc1OCC(O)CO (stereo unspecified) [GUAIFENESIN]	Not Active	Not Active	Not Active			Not Active	Not Active	Not Active	Not Active		
N=C(N)N/N=C/c1c(Cl)cccc1Cl [GUANABENZ]	Not Active	Not Active	Not Active			Not Active	Not Active	Not Active	Not Active		
C[C@]12CCC(=O)C=C1CC[C@@H]1[C@@H]2[C@@H](O)C[C@@]2(C)[C@H]1CC[C@]2(O)C(=O)CO [HYDROCORTISONE]	Not Active	Not Active	Not Active			Not Active	Not Active	Not Active	Not Active		
C/C=C\c1ccc(O)c(OC)c1 [ISOEUGENOL]	Not Active	Not Active	Not Active			Not Active	Not Active	Not Active	Not Active		
